From paper PMC12564449, “Multifaceted Biological Activity of Selected Flavone C-Monoglucosides” (International Journal of Molecular Sciences, 2025)
Structures can show the parent of a compound that is named as a salt. Where two headings read alike, the source gives them in different places. Marks after values point to notes of the source that are not given here.

Legend:
[1] = test system: advanced glycation end-products (AGEs) formation in BSA/glucose model system; experiment: Inhibition of AGEs formation, BSA/glucose model system; format: biochemical, bovine; conditions: for IC50: read-out: IC50 against AGEs formation, BSA-Glucose System
Experimental: (§1) The inhibitory activity against AGEs formation was performed in the bovine serum albumin (BSA)/glucose and BSA/methylglyoxal (MGO) model systems as described recently by Zielińska et al.. Standards of OR, hOR, VT, iVT, and Q were initially dissolved in a small volume of DMSO and then in phosphate buffer (0.1 M, pH 7.4) to obtain 1 mM (DMSO/phosphate buffer; 1:5; v/v). The positive control aminoguanidine (1 mM AG) was used. The percentage (%) of inhibition was obtained from three repetitions (n = 3). The IC50, indicating the concentration of the compound at which formation of AGEs is inhibited by 50%, was determined through linear regression analysis.

[2] = Differential pulse voltammetry: anodic peak potentials and antioxidant activity; format: physicochemical; conditions: DPV; for Anodic Peak Potential Epa (mV) Epa1: glassy carbon electrode; for Antioxidant Activity (mM Trolox): area under anodic peaks, Trolox regression; for antioxidant activity lower in relation to the antioxidant activity of Q: relative to quercetin
Experimental: Electrochemical measurements were performed at room temperature (25 ± 2 °C) in a small-volume electrochemical cell using a potentiostat type SP-240 (BioLogic Science Instruments, Seyssinet-Pariset, France) controlled by EC-Lab V11.36 software. Differential pulse voltammograms were obtained with a pulse amplitude of 100 mV, a potential step of 5 mV, and a modulation time of 0.2 s. Four scans were registered for each sample, and the reported data correspond to the average of at least three replicates. The working electrode was a glassy carbon electrode, GCE (3 mm diameter, BASi M-2012, and the auxiliary and reference electrodes were platinum wire (BASi MW-1033) and Ag/AgCl (3 M KCl, BASi-MW-2052). All potentials are quoted against the used reference electrode. Before each scan, the surface of the glassy carbon electrode was polished on a polishing cloth with 0.05 μm alumina paste and ultrasonically rinsed in deionized water. After polishing, the electrode was washed with ultrapure water and dried with absorbent paper. DPV measurements were carried out in a standard solution of flavone C-monoglucosides and quercetin at a final concentration of 250 μM. Before measurements, the standard solutions were diluted in 0.2 M acetate-acetic buffer (in 80% methanol) at pH 5.0 (v/v: 1:1). Buffer solution also served as a supporting electrolyte. For the test purpose, from registered DPV voltammograms, the anodic oxidation potentials (Epa) in mV and the integrated area under anodic peaks in μA were determined.

[3] = test system: advanced glycation end-products (AGEs) formation in BSA/methylglyoxal (MGO) model system; experiment: Inhibition of AGEs formation, BSA/MGO model system; format: biochemical, bovine; conditions: for IC50: read-out: IC50 against AGEs formation, BSA-MGO System; for anti-AGEs activity higher in relation to AG: relative to AG
Experimental: as §1

[4] = target: T1, acetylcholinesterase (AChE) (Homo sapiens, UniProt P22303); experiment: Acetylcholinesterase inhibitory activity; format: biochemical; conditions: for AChE inhibitory activity, times lower than that of galanthamine: relative to galanthamine
T1 construct: purchased Sigma Chemical Co. (Poznań, Poland)
T1 sequence (P22303 32-614, species assumed): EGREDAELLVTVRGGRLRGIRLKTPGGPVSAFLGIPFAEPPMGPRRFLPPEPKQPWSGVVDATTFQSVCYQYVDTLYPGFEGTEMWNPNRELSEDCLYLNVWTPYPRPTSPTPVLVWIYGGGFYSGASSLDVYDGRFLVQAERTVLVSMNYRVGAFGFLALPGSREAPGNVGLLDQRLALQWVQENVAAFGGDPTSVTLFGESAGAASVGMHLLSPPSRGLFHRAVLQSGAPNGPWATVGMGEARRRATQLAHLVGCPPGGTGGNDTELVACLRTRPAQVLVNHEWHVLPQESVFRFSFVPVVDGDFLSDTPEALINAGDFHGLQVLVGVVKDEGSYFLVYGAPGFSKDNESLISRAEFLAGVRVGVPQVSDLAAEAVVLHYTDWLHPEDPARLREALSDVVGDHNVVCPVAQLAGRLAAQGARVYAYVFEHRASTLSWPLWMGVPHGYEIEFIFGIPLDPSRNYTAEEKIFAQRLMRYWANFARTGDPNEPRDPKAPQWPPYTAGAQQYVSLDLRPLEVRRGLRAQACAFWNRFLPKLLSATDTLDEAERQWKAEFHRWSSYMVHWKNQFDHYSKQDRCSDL
Experimental: The AChE inhibitory activity was evaluated following the methodology adapted from Eldeen et al., and details of the procedure were provided recently by Zielińska et al.. […] All measurements were conducted using a microplate reader (Tecan Infinite M1000 PRO, TK Biotech, Warsaw, Poland). […] At least 3 replicates for each standard solution were carried out.

[5] = target: T2, angiotensin-converting enzymes (ACE) from porcine kidneys (Sus scrofa, UniProt F1RRW5); experiment: Angiotensin-I-converting enzyme inhibitory activity (fluorometric); format: biochemical
T2 construct: angiotensin-converting enzymes (ACE) from porcine kidneys (EC 3.4.15.1); purchased Sigma (Sigma Chemical Company, Saint Louis, MO, USA); host or cells: porcine kidney
T2 sequence (F1RRW5 34-1309): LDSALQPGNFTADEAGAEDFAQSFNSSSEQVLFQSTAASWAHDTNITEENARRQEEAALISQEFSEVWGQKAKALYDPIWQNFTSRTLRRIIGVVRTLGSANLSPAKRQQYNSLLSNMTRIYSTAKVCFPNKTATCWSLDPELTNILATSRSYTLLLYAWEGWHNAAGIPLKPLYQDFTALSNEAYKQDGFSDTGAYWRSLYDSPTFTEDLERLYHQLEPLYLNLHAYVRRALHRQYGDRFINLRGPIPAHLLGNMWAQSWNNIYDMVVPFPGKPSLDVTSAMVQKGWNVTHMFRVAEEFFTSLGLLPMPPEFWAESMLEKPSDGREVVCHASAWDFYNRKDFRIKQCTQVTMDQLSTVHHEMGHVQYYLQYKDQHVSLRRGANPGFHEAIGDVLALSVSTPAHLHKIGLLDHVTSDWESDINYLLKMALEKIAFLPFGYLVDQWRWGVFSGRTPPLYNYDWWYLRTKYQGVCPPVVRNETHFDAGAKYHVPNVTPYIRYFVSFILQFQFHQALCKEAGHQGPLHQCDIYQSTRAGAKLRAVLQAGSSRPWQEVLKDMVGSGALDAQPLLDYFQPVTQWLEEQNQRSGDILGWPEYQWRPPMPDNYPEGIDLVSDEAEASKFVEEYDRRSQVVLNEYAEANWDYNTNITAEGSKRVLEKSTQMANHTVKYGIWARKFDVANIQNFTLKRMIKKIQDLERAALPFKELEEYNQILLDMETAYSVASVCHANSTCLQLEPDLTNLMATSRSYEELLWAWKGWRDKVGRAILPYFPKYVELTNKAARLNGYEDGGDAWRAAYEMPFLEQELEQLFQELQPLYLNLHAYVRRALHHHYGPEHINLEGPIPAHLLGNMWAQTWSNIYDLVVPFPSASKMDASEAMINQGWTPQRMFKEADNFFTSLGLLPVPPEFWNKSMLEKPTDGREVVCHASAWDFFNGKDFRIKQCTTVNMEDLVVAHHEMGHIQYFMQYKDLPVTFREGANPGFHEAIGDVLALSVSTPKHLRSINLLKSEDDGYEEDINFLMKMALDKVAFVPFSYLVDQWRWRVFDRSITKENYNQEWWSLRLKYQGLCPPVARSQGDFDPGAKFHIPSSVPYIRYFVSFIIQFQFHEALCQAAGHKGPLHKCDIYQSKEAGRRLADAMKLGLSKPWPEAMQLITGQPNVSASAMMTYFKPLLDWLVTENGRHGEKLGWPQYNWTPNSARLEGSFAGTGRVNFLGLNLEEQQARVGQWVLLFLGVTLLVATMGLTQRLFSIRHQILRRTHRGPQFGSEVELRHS
Experimental: Angiotensin converting enzyme (ACE) inhibitory activity was performed according to the method of Sentandreu and Toldra. The details of the procedure were described recently by Zielińska et al.. Standards of OR (luteolin-8-C-glucoside), hOR (luteolin-6-C-glucoside), VT (apigenin-8-C-glucoside), iVT (apigenin-6-C-glucoside), and Q (quercetin) were dissolved in 80% methanol. Each standard was diluted to various concentrations using deionized water. The multiscan microplate fluorometer (Tecan Infinite M1000 PRO, TK Biotech, Warsaw, Poland) was used, and the IC50 value indicating the sample concentration at which 50% inhibition of ACE activity was determined by using linear regression analysis of logarithmic plots. At least 3 replicates for each standard solution were conducted.

[6] = vs. NHE; cited from earlier work
[7] = 0.25 mM standard solutions, acetate-acetic buffer pH 5.0 in 80% methanol, vs. Ag/AgCl
[8] = ACE from porcine kidneys, linear regression, read-out: IC50 for ACE inhibition

O=c1cc(-c2ccc(O)cc2)oc2cc(O)c([C@@H]3O[C@H](CO)[C@@H](O)[C@H](O)[C@H]3O)c(O)c12 [Isovitexin (iVT), 4′,5,7-trihydroxyflavone-6-glucoside]
IC50 [1]: 214 ± 11 µM | Anodic Peak Potential Epa (mV) Epa1 [2, 7]: 926 ± 8 ^a mV | Anodic Peak Potential Epa (mV) Epa1 ([2]; 0.25 mM standard solutions, acetate-acetic buffer pH 5.0 in 80% methanol, vs. Ag/AgCl, listed as iVT): 926 mV | Antioxidant Activity (mM Trolox) [2]: 1.06 ± 0.07 ^c mM Trolox | IC50 [3]: 341 ± 20 µM | IC50 [4]: 1.08 ± 0.011 µM | IC50 [5, 8]: 161 ± 3.27 µM

O=c1cc(-c2ccc(O)cc2)oc2c([C@@H]3O[C@H](CO)[C@@H](O)[C@H](O)[C@H]3O)c(O)cc(O)c12 [Vitexin (VT), 4′,5,7-trihydroxyflavone-8-glucoside]
IC50 [1]: 255 ± 16 µM | Anodic Peak Potential Epa (mV) Epa1 [2, 7]: 925 ± 8 ^a mV | Anodic Peak Potential Epa (mV) Epa1 ([2]; 0.25 mM standard solutions, acetate-acetic buffer pH 5.0 in 80% methanol, vs. Ag/AgCl, listed as VT): 925 mV | Antioxidant Activity (mM Trolox) [2]: 0.93 ± 0.07 ^c mM Trolox | IC50 [3]: 437 ± 17 µM | anti-AGEs activity higher in relation to AG [3]: 18% | IC50 [4]: 1.28 ± 0.089 µM | IC50 [5, 8]: 135 ± 2.45 µM | ACE inhibitory activity higher in comparison to iVT ([5]; relative to iVT): 19.6%

N=C(N)NN [Aminoquanidine (AG), aminoguanidine hydrochloride, reference compound]
IC50 [1]: 432 ± 36 µM | IC50 [3]: 531 ± 28 µM

O=c1cc(-c2ccc(O)c(O)c2)oc2cc(O)c([C@@H]3O[C@H](CO)[C@@H](O)[C@H](O)[C@H]3O)c(O)c12 [Homoorientin (hOR), 3′,4′,5,7-tetrahydroxyflavone-6-glucoside]
IC50 [1]: 14 ± 8 µM | anti-AGEs activity times higher in relation to Q ([1]; relative to Q): ~17 times | anti-AGEs activity times higher in relation to VT ([1]; relative to VT): about 18 times | anti-AGEs activity times higher in relation to iVT ([1]; relative to iVT): ~15 times | Anodic Peak Potential Epa (mV) Epa1 [2, 7]: 336 ± 5 ^b mV | Anodic Peak Potential Epa (mV) Epa1 ([2]; 0.25 mM standard solutions, acetate-acetic buffer pH 5.0 in 80% methanol, vs. Ag/AgCl, listed as hOR): 336 mV | Anodic Peak Potential Epa (mV) Epa2 [2, 7]: 960 ± 9 ^b mV | Antioxidant Activity (mM Trolox) [2]: 3.24 ± 0.15 ^b mM Trolox | antioxidant activity lower in relation to the antioxidant activity of Q [2]: 15% | IC50 [3]: 391 ± 22 µM | anti-AGEs activity higher in relation to AG [3]: 26% | IC50 [4]: 0.581 ± 0.096 µM | AChE inhibitory activity, times lower than that of galanthamine [4]: 14–20 times | IC50 [5, 8]: 114 ± 1.23 µM

O=c1cc(-c2ccc(O)c(O)c2)oc2c([C@@H]3O[C@H](CO)[C@@H](O)[C@H](O)[C@H]3O)c(O)cc(O)c12 [Orientin (OR), 3′,4′,5,7-tetrahydroxyflavone-8-glucoside]
IC50 [1]: 73 ± 5 µM | Anodic Peak Potential Epa (mV) Epa1 [2, 7]: 345 ± 6 ^b mV | Anodic Peak Potential Epa (mV) Epa1 ([2]; 0.25 mM standard solutions, acetate-acetic buffer pH 5.0 in 80% methanol, vs. Ag/AgCl, listed as OR): 345 mV | Anodic Peak Potential Epa (mV) Epa2 [2, 7]: 1020 ± 9 ^a mV | Antioxidant Activity (mM Trolox) [2]: 3.00 ± 0.14 ^b mM Trolox | antioxidant activity lower in relation to the antioxidant activity of Q [2]: 21% | IC50 [3]: 326 ± 19 µM | anti-AGEs activity higher in relation to AG [3]: 39% | IC50 ([4]; linear regression, read-out: IC50 for AChE inhibition): 0.868 ± 0.088 µM | AChE inhibitory activity, times lower than that of galanthamine [4]: 14–20 times | IC50 [5]: 122 ± 2.66 µM | ACE inhibitory activity lower as compared to hOR ([5]; relative to hOR): 6.9%

O=c1c(O)c(-c2ccc(O)c(O)c2)oc2cc(O)cc(O)c12 [Quercetin (Q), 3,3′,4′,5,7-pentahydroxyflavone, reference compound]
IC50 [1]: 243 ± 12 µM | Anodic Peak Potential Epa (mV) Epa1 [2, 7]: 255 ± 7 ^c mV | Anodic Peak Potential Epa (mV) Epa1 ([2]; 0.25 mM standard solutions, acetate-acetic buffer pH 5.0 in 80% methanol, vs. Ag/AgCl, listed as Q): 255 mV | Anodic Peak Potential Epa (mV) Epa2 [2, 7]: 510 ± 8 ^c mV | Anodic Peak Potential Epa (mV) Epa3 [2, 7]: 1060 ± 10 mV | Antioxidant Activity (mM Trolox) [2]: 3.81 ± 0.19 ^a mM Trolox | IC50 [3]: 466 ± 17 µM | anti-AGEs activity higher in relation to AG [3]: 12% | IC50 [4]: 1.37 ± 0.077 µM

N[C@@H](CCC(=O)N[C@@H](CS)C(=O)NCC(=O)O)C(=O)O [Glutathione (GSH), Glutathione]
standard redox potential [6]: around −0.23 V
